Experimental data published in ChEMBL document CHEMBL1201862, “PubChem BioAssay data set” (2004).
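These data come from cells grown in 96-well plates and exposed to compound for 48 hours at five concentrations. Abbreviation: GI50, concentration required for 50% inhibition of growth.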 Active and inactive are the calls of the source. Cut-off read from the data, not from the text of the source: active = GI50 up to about 1.1 µM and inactive = higher. Non-standard residues stand in square brackets, D forms with d. Residues, ends and D or L forms follow the SMILES beside them.

Legend:
Assay in all cases: DTP human tumour cell line panel, 48 h
HT-29 = system: HT-29
UO-31 = system: UO-31
OVCAR-4 = system: OVCAR-4
SK-OV-3 = system: SK-OV-3
SW-620 = system: SW-620
NCI-H23 = system: NCI-H23
MDA-N = system: MDA-N
SF-295 = system: SF-295
LOX IMVI = system: LOX IMVI
HCT-15 = system: HCT-15
HOP-62 = system: HOP-62
SR = system: SR
NCI-H226 = system: NCI-H226
U-251 = system: U-251
SK-MEL-28 = system: SK-MEL-28
SF-539 = system: SF-539
SNB-19 = system: SNB-19
BT-549 = system: BT-549
NCI-H522 = system: NCI-H522

Row | SMILES | GI50 (HT-29) | GI50 (UO-31) | GI50 (OVCAR-4) | GI50 (SK-OV-3) | GI50 (SW-620) | GI50 (NCI-H23) | GI50 (MDA-N) | GI50 (SF-295) | GI50 (LOX IMVI) | GI50 (HCT-15) | GI50 (HOP-62) | GI50 (SR) | GI50 (NCI-H226) | GI50 (U-251) | GI50 (SK-MEL-28) | GI50 (SF-539) | GI50 (SNB-19) | GI50 (BT-549) | GI50 (NCI-H522)
1 | CC(C)COP(C)(=O)C(N)(C(F)(F)F)C(F)(F)F (stereo not given) | > 100 µM (inactive) | > 100 µM (inactive) | > 100 µM (inactive) | > 100 µM (inactive) | > 100 µM (inactive) | > 100 µM (inactive) | > 100 µM (inactive) | > 100 µM (inactive) | > 100 µM (inactive) | > 100 µM | > 100 µM (inactive) | > 100 µM (inactive) | > 100 µM (inactive) | > 100 µM (inactive) | > 100 µM (inactive) | > 100 µM (inactive) |  |  | 
2 | Nc1cc(OCC2CCCCC2)nc(N)n1 | > 100 µM (inactive) | > 100 µM (inactive) | > 100 µM (inactive) | > 100 µM (inactive) | > 100 µM (inactive) | 84.5 µM (inactive) | > 100 µM (inactive) | > 100 µM (inactive) | > 100 µM (inactive) | > 100 µM | > 100 µM (inactive) |  | > 100 µM (inactive) | > 100 µM (inactive) | > 100 µM (inactive) | > 100 µM (inactive) | > 100 µM (inactive) | > 100 µM (inactive) | > 100 µM (inactive)
3 | O=C1CNc2cc(N3CCOCC3)ccc2N1 | > 100 µM (inactive) | > 100 µM (inactive) | > 100 µM (inactive) | > 100 µM (inactive) | > 100 µM (inactive) | > 100 µM (inactive) |  | > 100 µM (inactive) | > 100 µM (inactive) | > 100 µM | > 100 µM (inactive) | > 100 µM (inactive) | > 100 µM (inactive) | > 100 µM (inactive) | > 100 µM (inactive) |  | > 100 µM (inactive) | > 100 µM (inactive) | > 100 µM (inactive)
4 | COc1ccc(NC(=O)CC(=O)N2N=C(C)C(/N=N/c3ccc(C(=O)O)cc3)C2=O)cc1 (stereo not given) | > 100 µM (inactive) | > 100 µM (inactive) | > 100 µM (inactive) |  | > 100 µM (inactive) | > 100 µM (inactive) | > 100 µM (inactive) | > 100 µM (inactive) | 94 µM (inactive) | > 100 µM | > 100 µM (inactive) |  |  | > 100 µM (inactive) | > 100 µM (inactive) | > 100 µM (inactive) | > 100 µM (inactive) |  | > 100 µM (inactive)
5 | O=Cc1ccc2[nH]c(=O)oc2c1 | > 100 µM (inactive) | 23.1 µM (inactive) |  | > 100 µM (inactive) | > 100 µM (inactive) | > 100 µM (inactive) | > 100 µM (inactive) | > 100 µM (inactive) | > 100 µM (inactive) | > 100 µM | > 100 µM (inactive) | 39.7 µM (inactive) | > 100 µM (inactive) | 84.5 µM (inactive) | > 100 µM (inactive) | > 100 µM (inactive) | > 100 µM (inactive) | > 100 µM (inactive) | 
6 | CSCC[C@H](NC(=O)[C@@H](N)CC(N)=O)C(=O)N[C@@H](Cc1c[nH]c2ccccc12)C(=O)N[C@@H](CCC(N)=O)C(=O)N[C@@H](CCC(=O)O)C(=O)N[C@H](C(=O)NCC(=O)N[C@@H](CCCCN)C(=O)N[C@H](C)C(=O)O)C(C)C (H-NMWQEVGK[dA]-OH) | > 100 µM (inactive) |  | > 100 µM (inactive) | > 100 µM (inactive) | > 100 µM (inactive) | > 100 µM (inactive) | > 100 µM (inactive) | > 100 µM (inactive) | > 100 µM (inactive) | > 100 µM | > 100 µM (inactive) |  | > 100 µM (inactive) | > 100 µM (inactive) | > 100 µM (inactive) | > 100 µM (inactive) | > 100 µM (inactive) |  | 
7 | O=C(CN1CCCCC1)c1ccc2c(c1)Sc1ccccc1O2 | 10.9 µM (inactive) | 10.4 µM (inactive) | 13 µM (inactive) | 15.5 µM (inactive) | 17.8 µM (inactive) | 13.1 µM (inactive) | 15.8 µM (inactive) | 15.7 µM (inactive) | 10.2 µM (inactive) | 11 µM | 16.1 µM (inactive) | 18.4 µM (inactive) | 14.2 µM (inactive) | 15.5 µM (inactive) | 18.7 µM (inactive) | 14.3 µM (inactive) | 13.7 µM (inactive) |  | 
8 | CC1(C)CCC[C@]2(C)[C@@H]1CC[C@@]13O[C@@H]1C1=C(CO)C(=O)OC1=C[C@@H]23 | 14 µM (inactive) | 11.7 µM (inactive) | 19.2 µM (inactive) | 20.6 µM (inactive) | 18.9 µM (inactive) | 17.5 µM (inactive) |  | 16.9 µM (inactive) |  | 14.4 µM | 25.6 µM (inactive) |  | 15.7 µM (inactive) | 24.4 µM (inactive) | 16.6 µM (inactive) |  | 13.6 µM (inactive) | 22 µM (inactive) | 10.1 µM (inactive)
